Assay results as given in US4693884A, “Technetium-99m triphosphonates and tetraphosphonates for the scintigraphic visualization of res-containing organs and lymph vessels, and a process for their preparation” (Hoechst Aktiengesellschaft, priority 1982, dated 1987).

Legend:
[1] = Example 5: organ distribution of 99mTc ETP in rats; type: in vivo, Sprague-Dawley rats; conditions: 30 min, intravenous
Description: 1.40 g of ethane-1,1,2,2-tetraphosphonic acid are dissolved in about 20 ml of double-distilled water and the pH of the solution is adjusted to 7.0 using 1N sodium hydroxide solution. The total volume of this solution is adjusted to 100 ml with double-distilled water and, while excluding oxygen, 11 mg of SnCl2.2H2 O in 5 ml of aqueous solution are added. The clear solution thus obtained is sterilized by filtration and filled, in 0.2 ml portions, into snap-closure bottles which have previously been cooled with liquid nitrogen, and is then freeze-dried. The contents are covered with nitrogen and the bottles are closed. A bottle then contains about 3.3 mg of Na salt of ETP (corresponding to about 2.7 mg of ETP) and about 11 μg of tin(II).
The substance is labeled with ^99m Tc by the addition of 5 ml of physiologic saline which contains 1.5 mCi of technetium-99m-pertechnetate.After a reaction time of 15 minutes, three Sprague-Dawley rats each received 0.1 ml of this solution by intravenous injection. 30 minutes later, the animals were sacrificed and the organ distribution of ^99m Tc ETP was measured. The following figures (as percentage of the dose administered) were found from this: […]

[2] = Organ distribution of 99mTc-labeled substances in rats 30 minutes after injection as a function of the amount of substance administered; type: in vivo; conditions: for Blood/ml / Kidneys / Liver / Lung / Remainder of body / Spleen / Thyroid / tissue uptake at 0.5 h: 30 min after injection, n = 3; for accumulation in the liver and spleen compared with phytate / accumulation of activity in the kidneys, blood, femur and remainder of the body compared with phytate: all amounts of substance investigated; for suitability as diagnostic agent for visualization of RES-containing organs compared with 99mTc phytate: deduction from the animal experiments; for tissue uptake at 0.5 h: rat, in vivo, iv, 0.05 mg, read-out: Femur/g
Description: Assuming that 2-20 mg of TPB, ETP, PTP or phytate are administered to humans, and assuming that the weight of human is 80 kg, this corresponds to an amount administered of 25-250 μg/kg of body weight. Calculating on the basis of the body weight of rats weighing 200 g, then administration of 5-50 μg of TPB, ETP, PTP or phytate per rat exactly reflects the relationships.
Organ distribution of ^99m Tc TPB, ^99m TC ETP and ^99m Tc
phytate in rats (n = 3) 30
minutes after injection as a function of the amount of substance
(all data as a percentage of the amount of activity administered)

[3] = Accumulation of phosphoric acid derivatives investigated as technetium-99m diagnostic agents (bone, liver, RES); conditions: in vivo
Source text: It is possible to use phosphoric acid derivatives, particularly organic phosphonic acid derivatives, for bone scintigraphy. Many compounds have been investigated in the search for derivatives suitable as a technetium-99m diagnostic agent for bone.

[4] = Comparison of 99mTc TPB, 99mTc PTP and 99mTc phytate after intravenous injection to dogs; type: in vivo; conditions: intravenous, dogs; for decrease in activity via the liver after accumulation in the liver is complete: compared with phytate
[5] = Lymphatic scintigraphy on dogs; type: in vivo, beagle dogs
Description: In order to check the utilizability of the new diagnostic agent for lymphatic scintigraphy, lymphatic scintigraphy using ^99m Tc TPB was carried out on dogs.
A TPB labeling unit which contained CaCl2 as described in Example 4 was prepared with 5 ml of ^99m Tc-pertechnetate solution which contained 5 mCi of ^99m Tc per ml. Adult beagle dogs each received 0.3-0.4 ml of this solution injected subcutaneously into the hind paw. The change in the distribution of radioactivity with time over the hind legs was then followed using a gamma camera for 4 hours. The site of injection was shielded with lead in each case.

[6] = Example 2: organ distribution in rats, frozen solution labeled with 99mTc; type: in vivo, Sprague-Dawley rats; conditions: femoral vein
Description: 400 mg of 2,4,4-triphosphonobutyric acid are dissolved in about 30 ml of double-distilled water. The pH of the solution, which is about 1.7 after this, is then adjusted to pH 6 using 1N NaOH. 8 mg of SnCl2.2H2 O in 1 ml of 0.1N HCl are added to this solution, and the pH is again adjusted to 6 using 0.1N NaOH, and then the solution is made up to 40 ml. All the operations are carried out under a protective atmosphere of nitrogen gas. The solution thus obtained is frozen in individual 1 ml portions.
After 3 days, the solution is thawed and reacted with 1 ml of a ^99m Tc-pertechnetate solution which contains 4.44 MBq (120 μCi) of ^99m Tc. After 30 minutes, Sprague-Dawley rats weighing 200 g each receive 0.5 ml of this solution injected into the femoral vein. 3 animals are sacrificed with ether at 30 minutes and at 2 hours after the injection, and the organ distribution is determined.

[7] = Example 3: distribution of activity over the organs in rats, lyophilizate; type: in vivo, Sprague-Dawley rats; conditions: 30 min
Description: 8 g of sodium 2,4,4-triphosphonobutyrate are dissolved in about 60 ml of double-distilled water, the pH of the solution then being 8.5. After the pH had been adjusted to 7 with 1N HCl, 120 mg of SnCl2.2H2 O in 3 ml of 1N HCl were added, the pH was adjusted to 6 using 0.1N NaOH, and the solution was made up to 160 ml with double-distilled water. All operations should be carried out under a protective atmosphere of nitrogen gas. The solution thus obtained is freeze-dried in individual 1 ml portions in snap-closure bottles which have previously been frozen with liquid nitrogen. The contents are covered with nitrogen and the bottles are closed.
After storage for some weeks, the lyophilizate is dissolved in 10 ml of physiologic saline containing 2 mCi of technetium-99m-pertechnetate. After 30 minutes, 3 Sprague-Dawley rats (about 200 g) each receive 0.1 ml of this solution injected into the femoral vein, and 30 minutes later the animals are sacrificed with ether and the distribution of activity over the organs is determined. The following mean figures (as percentage of the dose administered) result: […]

[8] = second amount column (printed 50 μg)
[9] = third amount column (printed 50 μg)

For O=P(O)(O)C(C(P(=O)(O)O)P(=O)(O)O)P(=O)(O)O [ETP, ethane-1,1,2,2-tetraphosphonic acid], the total recovered activity [1] was 104.5%, the Blood/ml ([1]; three rats) was 0.02 percentage of the dose adminis and the Kidneys ([1]; three rats) was 0.12 percentage of the dose adminis. For the same compound, the Liver ([1]; three rats) was 96.2 percentage of the dose adminis, the Remainder of body ([1]; three rats) was 7.8 percentage of the dose adminis and the Spleen ([1]; three rats) was 2.1 percentage of the dose adminis. For the same compound, the Thyroid ([1]; three rats) was 0.03 percentage of the dose adminis, the lungs ([1]; three rats) was 0.18 percentage of the dose adminis and the Blood/ml ([2]; (50 μg)) was 0.02 percentage of the amount of ac. For the same compound, the Kidneys ([2]; (50 μg)) was 0.12 percentage of the amount of activity administered, the Liver ([2]; (50 μg)) was 96.2 percentage of the amount of activity administered and the Lung ([2]; (50 μg)) was 0.18 percentage of the amount of activity administered. For the same compound, the Remainder of body ([2]; (50 μg)) was 7.8 percentage of the amount of activity administered, the Spleen ([2]; (50 μg)) was 2.10 percentage of the amount of activity administered and the Thyroid ([2]; (50 μg)) was 0.03 percentage of the amount of activity administered. For the same compound, the Blood/ml [2, 8] was 0.04 percentage of the amount of ac, the Kidneys [2, 8] was 0.16 percentage of the amount of activity administered and the Liver [2, 8] was 95.2 percentage of the amount of activity administered. The Lung [2, 8] was 0.21 percentage of the amount of activity administered, the Remainder of body [2, 8] was 11.2 percentage of the amount of activity administered and the Spleen [2, 8] was 2.13 percentage of the amount of activity administered. For the same compound, the Thyroid [2, 8] was 0.03 percentage of the amount of activity administered, the Blood/ml [2, 9] was 0.04 percentage of the amount of ac and the Kidneys [2, 9] was 0.26 percentage of the amount of activity administered. The Liver [2, 9] was 93.6 percentage of the amount of activity administered, the Lung [2, 9] was 0.32 percentage of the amount of activity administered and the Remainder of body [2, 9] was 10.4 percentage of the amount of activity administered. For the same compound, the Spleen [2, 9] was 1.30 percentage of the amount of activity administered, the Thyroid [2, 9] was 0.04 percentage of the amount of activity administered and the “accumulation in the liver and spleen compared with phytate” value [2] was “markedly higher than that of phytate”. The “accumulation of activity in the kidneys, blood, femur and remainder of the body compared with phytate” value [2] was “clearly lower than with phytate”, the “suitability as diagnostic agent for visualization of RES-containing organs compared with 99mTc phytate” value [2] was “unambiguously superior” and the accumulation in bone [3] was “virtually not at all”. The “accumulation in the liver” value [3] was “very preferentially accumulated in the liver” and the “decrease in activity via the liver after accumulation in the liver is complete” value [4] was “slower”.

For O=P(O)(O)C(CCC(P(=O)(O)O)P(=O)(O)O)P(=O)(O)O [BTP, butane-1,1,4,4-tetraphosphonic acid], the accumulation in bone [3] was “virtually not at all” and the “accumulation in the liver” value [3] was “very preferentially accumulated in the liver”.

With O=C(O)C(CC(P(=O)(O)O)P(=O)(O)O)P(=O)(O)O (stereo not drawn) [TPB, 2,4,4-triphosphonobutyric acid] the Blood/ml ([2]; (50 μg)) was 0.05 percentage of the amount of ac, the Kidneys ([2]; (50 μg)) was 0.12 percentage of the amount of activity administered and the Liver ([2]; (50 μg)) was 95.8 percentage of the amount of activity administered. The Lung ([2]; (50 μg)) was 0.19 percentage of the amount of activity administered, the Remainder of body ([2]; (50 μg)) was 5.6 percentage of the amount of activity administered and the Spleen ([2]; (50 μg)) was 1.30 percentage of the amount of activity administered. For the same compound, the Thyroid ([2]; (50 μg)) was 0.03 percentage of the amount of activity administered, the Blood/ml [2, 8] was 0.16 percentage of the amount of ac and the Kidneys [2, 8] was 0.37 percentage of the amount of activity administered. For the same compound, the Liver [2, 8] was 92.7 percentage of the amount of activity administered, the Lung [2, 8] was 0.30 percentage of the amount of activity administered and the Remainder of body [2, 8] was 11.5 percentage of the amount of activity administered. For the same compound, the Spleen [2, 8] was 0.88 percentage of the amount of activity administered, the Thyroid [2, 8] was 0.03 percentage of the amount of activity administered and the Blood/ml [2, 9] was 0.19 percentage of the amount of ac. For the same compound, the Kidneys [2, 9] was 0.39 percentage of the amount of activity administered, the Liver [2, 9] was 88.7 percentage of the amount of activity administered and the Lung [2, 9] was 0.29 percentage of the amount of activity administered. The Remainder of body [2, 9] was 12.6 percentage of the amount of activity administered, the Spleen [2, 9] was 0.99 percentage of the amount of activity administered and the Thyroid [2, 9] was 0.03 percentage of the amount of activity administered. The “accumulation in the liver and spleen compared with phytate” value [2] was “markedly higher than that of phytate”, the “accumulation of activity in the kidneys, blood, femur and remainder of the body compared with phytate” value [2] was “clearly lower than with phytate” and the “suitability as diagnostic agent for visualization of RES-containing organs compared with 99mTc phytate” value [2] was “unambiguously superior”. The tissue uptake at 0.5 h [2, 8] was 0.29 %ID/g, the tissue uptake at 0.5 h [2, 9] was 0.3 %ID/g and the accumulation in bone [3] was “virtually not at all”. The “accumulation in the liver” value [3] was “very preferentially accumulated in the liver”, the “excretion of activity with the urine” value ([4]; 30 min after injection) was 0.6 % of the test dose and the “excretion of activity with the urine, compared with phytate” value [4] was “markedly less”. The “decrease in activity via the liver after accumulation in the liver is complete” value [4] was “slower”, the “suitability for lymphatic scintigraphy” value [5] was “also suitable for lymphatic scintigraphy” and the Blood/ml ([6]; 30 min p.i.) was 0.03 percentage of the dose adminis. The Kidneys ([6]; 30 min p.i.) was 1.74 percentage of the dose adminis, the Liver ([6]; 30 min p.i.) was 86.5 percentage of the dose adminis and the Remainder of body ([6]; 30 min p.i.) was 9.08 percentage of the dose adminis. For the same compound, the Spleen ([6]; 30 min p.i.) was 2.40 percentage of the dose adminis, the Thyroid ([6]; 30 min p.i.) was 0.05 percentage of the dose adminis and the urine ([6]; 30 min p.i.) was 1.75 percentage of the dose adminis. For the same compound, the Blood/ml ([6]; 2 hours p.i.) was 0.01 percentage of the dose adminis, the Kidneys ([6]; 2 hours p.i.) was 1.12 percentage of the dose adminis and the Liver ([6]; 2 hours p.i.) was 88.3 percentage of the dose adminis. The Remainder of body ([6]; 2 hours p.i.) was 8.27 percentage of the dose adminis, the Spleen ([6]; 2 hours p.i.) was 3.06 percentage of the dose adminis and the Thyroid ([6]; 2 hours p.i.) was 0.04 percentage of the dose adminis. For the same compound, the urine ([6]; 2 hours p.i.) was 2.02 percentage of the dose adminis, the tissue uptake at 0.5 h ([6]; rat, bone, iv, 30 min p.i.) was 0.17 %ID/g and the tissue uptake at 2 h ([6]; rat, bone, iv, 2 hours p.i.) was 0.22 %ID/g.

In the case of O=C([O-])C(CC(P(=O)(O)O)P(=O)(O)O)P(=O)(O)O.[Na+] (stereo not drawn) [sodium 2,4,4-triphosphonobutyrate], the Blood/ml ([7]; femoral vein, mean of 3 rats) is reported as 0.03 percentage of the dose adminis, the Kidneys ([7]; femoral vein, mean of 3 rats) is reported as 0.08 percentage of the dose adminis and the Liver ([7]; femoral vein, mean of 3 rats) is reported as 96.2 percentage of the dose adminis. For the same compound, the Remainder of body ([7]; femoral vein, mean of 3 rats) was 4.9 percentage of the dose adminis, the Spleen ([7]; femoral vein, mean of 3 rats) was 1.9 percentage of the dose adminis and the Thyroid ([7]; femoral vein, mean of 3 rats) was 0.03 percentage of the dose adminis. The lungs ([7]; femoral vein, mean of 3 rats) was 0.24 percentage of the dose adminis and the recovered activity total ([7]; related to the dose administered) was 103.4%.
